Measurements reported in US11197840B2, “Methods of treating or alleviating mental disorders and associated symptoms” (The Florey Institute of Neuroscience and Mental Health, priority 2015, dated 2021).

Key:
dynamin 3 = test: Next Generation Sequencing (RNAseq) of primary cortical neurons: dynamin 3 transcript; format: cell-based, mouse; settings: 1 mM 10-HDA vs DMSO, primary cortical neurons of C57Black 6 mice, harvested Day 7
Protocol: (§1) Foetal cortices of C57Black 6 mice (gestational days 15) were micro-dissected and subjected to trypsin digestion and mechanical trituration and centrifugation. The pelleted cells were resuspended in Neurobasal™ medium (NBM) containing 2.5% B-27 supplement, 1% penicillin, 1% streptomycin, 0.25% GlutaMAX-1 supplement and 10% dialysed foetal calf serum. Cells were seeded on poly-d-lysine (100 μg/ml) coated 12-well plates to a density of […]. Cultures were maintained at 37° C. in a humidified 5% CO2 and 95% air incubator and were subsequently cultured after day 1 in serum-free medium. After 24 hours, primary cortical neurons were treated with DMSO or 1 mM 10-HDA, and harvested for total RNA preparation on Day 7 for subsequent Next Generation Sequencing (RNAseq). […]
(§2) Total RNA was extracted from each sample using the PARIS kit (Ambion). The quality of RNA was assessed by LabChip® (Perkin Elmer). […] The libraries were sequenced with 50 bp single end reads using Illumina Hiseq and subjected to bioinformatic analyses. Sequencing data were assessed (FastQC) and aligned to mouse genome using Subjunc aligner within the Subread package. Sequencing data was summarised into Reads per transcript using Feature counts and the Gencode gene models for the mouse genome build. […]

[1] = system: 5-hydroxytryptamine (serotonin) receptor 2C; test: Next Generation Sequencing (RNAseq) of primary cortical neurons: 5-hydroxytryptamine receptor 2C transcript; format: cell-based, mouse; settings: 1 mM 10-HDA vs DMSO, primary cortical neurons of C57Black 6 mice, harvested Day 7
Protocol: as §1, §2

male ArKO mice = test: Behavioural disturbances of male ArKO mice (wheel running, compulsive grooming); format: in vivo, mouse; settings: administration to male ArKO mice; general statement
Protocol: Specifically, the grooming activity of each animal was analysed for 20 min after administration of water mist spray (a trigger for grooming). […] Compulsive grooming observed in ArKO represents an OCD-like repetitive behavioural disturbance in OCD-patients.

[2] = system: male ArKO (aromatase knockout) mice; test: Water mist spray triggered grooming in male ArKO mice treated with 10-HDA; format: in vivo, mouse
Protocol: Specifically, male 3 month-old ArKO mice (n=5) were injected daily with 10-HDA (500 μg/kg) for 1 week. Similarly to Example 1 (see above), water mist spray triggered grooming was assessed before and after administration of 10-HDA treatment. During grooming assessment, each mouse was subjected to two squirts of sterile water mist spray and its grooming activity was recorded for 10 min immediately after the mist spray. Grooming duration was analyzed statistically by paired t test. […] Further grooming assessment was performed 5 days after the last administration of 10-HDA.

For `O=C(O)C=CCCCCCCCO` [10-HDA, 10-hydroxy-2-decenoic acid], the “transcript expression level of dynamin 3” value (dynamin 3) was “significantly upregulated”, the “transcript expression level of 5-hydroxytryptamine (serotonin) receptor 2C” value [1] was “significantly upregulated” and the “behavioural disturbances, including wheel running and/or compulsive grooming” value (male ArKO mice) was “alleviated one or more of the behavioural disturbances”. For the same compound, the “grooming duration after the withdrawal period” value ([2]; 5 days after the last administration of 10-HDA, male ArKO mice) was “return to pre-treatment levels” and the “duration of grooming after administration of 10-HDA” value ([2]; male 3 month-old ArKO mice, 500 μg/kg injected daily for 1 week, 10 min after water mist spray, before vs after treatment, paired t test p=0.0363) was “significant reduction”.
